test system: U2OS_Bim cells; experiment: Apoptosis inhibition assay (Bim-induced apoptosis, cell viability by ATP level); assay type: cell-based; settings: not given
Procedure: A chemical library containing 200000 compounds was screened according to the following procedure: U2OS_Bim cells (a cell line in which the BH3-only protein Bim can be inducibly expressed by the addition of Doxycycline to the growth medium)^[2] were plated in 384-well plates with 30 μl medium at a density of 500 cells per well. 16 hrs after plating, test compounds were transferred from stock plates to the assay plates with the cultured cells. Positive control (20 μM zVAD) and negative control (DMSO) were added to every plate. 1 hr after compound treatment, 0.1 ug/mL Doxycyclin (DOX) was added to induce the expression of the Bim protein. After 24 hrs, cell viability was determined by measuring the ATP levels using a Cell Titer-Glo kit (Promega, G7570) according to the manufacturer's instructions. Luminescence was recorded with a PerkinElmer EnSpire Multimode Plate Reader. Compounds that could rescue cell viability to a level above 50% were selected; these compounds were then screened a second time for assurance.
U2OS_Bim or U2OS_tBid cells were plated at a density of 3000 cells per well in 96-well plates. 24 hrs later, cells were treated with experimental compounds, zVAD (positive control) and DMSO (Negative control) for one hour. The cells were then treated with 0.1 μg/mL DOX to trigger apoptosis. 24 hours after the addition of DOX, cell viability was determined by measuring the ATP levels using a Cell Titer-Glo kit. Cell survival rate was calculated.
U2OS_Bim cells (a U2OS stable cell line transfected with a Bim transgene) were cultured in DMEM culture medium (Gibico). On day one, U2OS_Bim cells were plated in 96-well plates at a density of 3000 cells per well. On day two, cells were pretreated with compounds for one hour. Then cells were treated with 0.1 μg/mL doxycycline (DOX) to trigger apoptosis. 24 hours after DOX treatment, cell viability was determined by measuring the ATP levels using the Cell Titer-Glo kit (G7570, Promega), according to the manufacturer's instructions. Luminescence was recorded with a PerkinElmer EnSpire Multimode Plate Reader. Survived cells were normalized to those cells treated with DMSO. zVAD (20 μM) was used as a positive control. Activity data for compounds […] are represented as means f standard deviation of duplicates; activity data for compounds 187-274 are estimated based on preliminary results.

Compound | EC50 [µM]
CS(=O)(=O)c1nc(-c2ccc(=O)n(Cc3ccccc3)c2)cc(C(F)(F)F)n1 [Compound 103, 1-Benzyl-5-(2-(methylsulfonyl)-6-(trifluoromethyl)pyrimidin-4-yl)pyridin-2 (1H)-one] | 1 to 10

same assay, conditions: U2OS_Bim cells; estimated (*Est.) / preliminary results; numbering of Tables 4a/4b; read-out: EC50

Compound | EC50 [µM]
Cc1cc(-c2cc(F)c(=O)n(Cc3ccnc(CCO)c3)c2)nc(S(=O)(=O)CCC(OCc2ccccc2F)c2ccccc2)n1 (centres unmarked) [Compound 360] | 0.001 to 1
Cc1cc(-c2cc(F)c(=O)n(Cc3ccc4c(c3)OCO4)c2)nc(S(=O)(=O)CCCC(=O)N(c2ccccc2)C(C)(C)C)n1 [Compound 371] | 0.001 to 1
Cc1cc(-c2cc(F)c(=O)n(Cc3ccc4c(c3)OCO4)c2)nc(S(=O)(=O)CCC(OCc2ccccc2F)c2ccc3ccoc3c2)n1 (centres unmarked) [Compound 394] | 0.001 to 1
Cc1cc(-c2cc(F)c(=O)n(Cc3ccc4c(c3)OCO4)c2)nc(S(=O)(=O)CCC(OCc2cccn2C)c2ccccc2)n1 (centres unmarked) [Compound 403] | 0.001 to 1
Cc1cc(-c2cc(F)c(=O)n(Cc3ccc4c(c3)OCO4)c2)nc(S(=O)(=O)CCC(OCc2ccccc2F)C(C)(C)C)n1 (centres unmarked) [Compound 400] | 0.001 to 1
Cc1cc(-c2cc(F)c(=O)n(Cc3ccnc(N(C)CO)c3)c2)nc(S(=O)(=O)CCC(OCc2ccccc2F)c2ccccc2)n1 (centres unmarked) [Compound 361] | 0.001 to 1
Cc1cc(-c2cc(F)c(=O)n(Cc3ccc4c(c3)CCCO4)c2)nc(S(=O)(=O)CCC(OCc2ccccc2F)c2ccccc2)n1 (centres unmarked) [Compound 355] | 0.001 to 1
Cc1cc(-c2cc(F)c(=O)n(Cc3ccc4c(c3)OCO4)c2)nc(S(=O)(=O)CCC(OCc2ccccc2F)c2ccc3ncoc3c2)n1 (centres unmarked) [Compound 395] | 0.001 to 1
Cc1cc(-c2cc(F)c(=O)n(Cc3ccc4c(c3)NC(=O)CO4)c2)nc(S(=O)(=O)CCC(OCc2ccccc2F)c2ccccc2)n1 (centres unmarked) [Compound 344] | 0.001 to 1
Cc1cc(-c2cc(F)c(=O)n(Cc3ccc4c(c3)OCO4)c2)nc(S(=O)(=O)CCC(OCc2ccncc2)c2ccccc2)n1 (centres unmarked) [Compound 401] | 0.001 to 1
Cc1cc(-c2cc(F)c(=O)n(Cc3ccc4c(c3)OCO4)c2)nc(S(=O)(=O)CCCN(c2ccccc2)C2CC2)n1 [Compound 378] | 0.001 to 1

same assay, conditions: U2OS_Bim cells; estimated based on preliminary results; numbering of Tables 4a/4b; read-out: EC50

Compound | EC50 [µM]
COc1ccc(Cn2cc(-c3cc(-c4nccs4)nc(S(C)(=O)=O)n3)ccc2=O)cc1OC [Compound 217] | < 10
C[S+]([O-])c1nc(-c2ccc(=O)n(Cc3ccc4ocnc4c3)c2)cc(C(F)(F)F)n1 (centres unmarked) [Compound 227] | < 10
COc1ccc(Cn2cc(-c3cc(C(F)(F)F)nc([S+]([O-])Cc4cccnc4)n3)ccc2=O)cc1OC (centres unmarked) [Compound 192] | < 10
CS(=O)(=O)c1nc(-c2ccc(=O)n(Cc3ccc4ncccc4c3)c2)cc(C(F)(F)F)n1 [Compound 246] | < 10
COc1ccc(Cn2cc(-c3cc(-n4ccnc4)nc(S(C)(=O)=O)n3)ccc2=O)cc1OC [Compound 222] | < 10
COc1ccc(Cn2cc(-c3cc(C(F)(F)F)nc([S+]([O-])Cc4ccccn4)n3)ccc2=O)cc1OC (centres unmarked) [Compound 187] | < 10
COc1ccc(Cn2cc(-c3cc(-c4ccc[nH]4)nc([S+](C)[O-])n3)ccc2=O)cc1OC (centres unmarked) [Compound 205] | < 10
C[S+]([O-])c1nc(-c2ccc(=O)n(Cc3ccc4ocnc4c3)c2)cc(C(F)(F)F)n1 (centres unmarked) [Compound 225] | < 10
COc1ccc(Cn2cc(-c3cc(CF)nc([S+](C)[O-])n3)ccc2=O)cc1OC (centres unmarked) [Compound 203, 1-(3,4-dimethoxybenzyl)-5-(6-(fluoromethyl)-2-(methylsulfinyl)pyrimidin-4-yl)pyridin-2 (1H)-one] | < 10

same assay, conditions: U2OS_Bim cells; means of duplicates; numbering of Tables 4a/4b

Compound | EC50 [µM]
C#CCOc1cc(Cn2cc(-c3cc(C(F)(F)F)nc(S(C)(=O)=O)n3)ccc2=O)ccc1OC [Compound 129, 1-(4-methoxy-3-(prop-2-yn-1-yloxy)benzyl)-5-(2-(methylsulfonyl)-6-(trifluoromethyl)pyrimidin-4-yl)pyridin-2 (1H)-one] | 0.001 to 1

same assay, conditions: U2OS_Bim cells; means of duplicates; numbering of Tables 4a/4b; read-out: EC50

Compound | EC50 [µM]
Cc1cc(-c2cnc(=O)n(Cc3ccc4c(c3)OCO4)c2)nc(S(=O)(=O)CCC(OCc2ccccc2F)c2ccccc2)n1 (centres unmarked) [Compound 307, 1′-(benzo[d][1,3]dioxol-5-ylmethyl)-2-((3-((2-fluorobenzyl)oxy)-3-phenylpropyl)sulfonyl)-6-methyl-[4,5′-bipyrimidin]-2′(1′H)-one] | 0.001 to 1
COc1ccc(Cn2cc(-c3cc(C(F)F)nc(S(C)(=O)=O)n3)ccc2=O)cc1C(F)(F)F [Compound 169, 5-(6-(difluoromethyl)-2-(methylsulfonyl)pyrimidin-4-yl)-1-(4-methoxy-3-(trifluoromethyl)benzyl)pyridin-2 (1H)-one] | 0.001 to 1
Cc1cc(-c2cc(F)c(=O)n(Cc3ccc4c(c3)OCO4)c2)nc(S(=O)(=O)CCC(Oc2cccnc2)c2ccccc2)n1 (centres unmarked) [Compound 333, 1-(benzo[d][1,3]dioxol-5-ylmethyl)-3-fluoro-5-(6-methyl-2-((3-phenyl-3-(pyridin-3-yloxy)propyl)sulfonyl)pyrimidin-4-yl)pyridin-2 (1H)-one] | 0.001 to 1
COc1ccc(Cn2cc(-c3cc(C)nc(S(=O)(=O)CCC(C)=O)n3)cc(F)c2=O)cc1F [Compound 303, 3-fluoro-1-(3-fluoro-4-methoxybenzyl)-5-(6-methyl-2-((3-oxobutyl)sulfonyl)pyrimidin-4-yl)pyridin-2 (1H)-one] | < 100
Cc1cc(-c2cc(F)c(=O)n(Cc3ccc4c(c3)OCO4)c2)nc(S(=O)(=O)CCC(OCc2ccc(F)cc2F)c2ccccc2)n1 (centres unmarked) [Compound 317, 1-(benzo[d][1,3]dioxol-5-ylmethyl)-5-(2-((3-((2,4-difluorobenzyl)oxy)-3-phenylpropyl)sulfonyl)-6-methylpyrimidin-4-yl)-3-fluoropyridin-2 (1H)-one] | 0.001 to 1
COc1ccc(Cn2cc(-c3cc(C(F)(F)F)nc([S+](C)[O-])n3)ccc2=O)cc1 (centres unmarked) [Compound 111, 1-(4-Methoxybenzyl)-5-(2-(methylsulfinyl)-6-(trifluoromethyl)pyrimidin-4-yl)pyridin-2 (1H)-one] | 0.001 to 1
CS(=O)(=O)c1nc(-c2ccc[nH]2)cc(C(F)(F)F)n1 [Compound 84, 2-(methylsulfonyl)-4-(1H-pyrrol-2-yl)-6-(trifluoromethyl)pyrimidine] | 1 to 10
COc1ccc(Cn2cc(-c3cc(C(F)(F)F)nc(S(=O)(=O)CCC(=O)N4CCCC4)n3)ccc2=O)cc1OC [Compound 150, 1-(3,4-dimethoxybenzyl)-5-(2-((3-oxo-3-(pyrrolidin-1-yl)propyl)sulfonyl)-6-(trifluoromethyl)pyrimidin-4-yl)pyridin-2 (1H)-one] | 0.001 to 1
CS(=O)(=O)c1nc(-c2ccc(=O)n(Cc3cccc(O)c3)c2)cc(C(F)(F)F)n1 [Compound 108, 1-(3-hydroxybenzyl)-5-(2-(methylsulfonyl)-6-(trifluoromethyl)pyrimidin-4-yl)pyridin-2 (1H)-one] | 1 to 10
C#Cc1ccc(Cn2cc(-c3cc(C(F)(F)F)nc(S(C)(=O)=O)n3)ccc2=O)cc1 [Compound 122, 1-(4-ethynylbenzyl)-5-(2-(methylsulfonyl)-6-(trifluoromethyl)pyrimidin-4-yl)pyridin-2 (1H)-one] | 0.001 to 1
C#CCOc1cccc(-c2cc(C(F)(F)F)nc([S+](C)[O-])n2)c1 (centres unmarked) [Compound 72, 2-(methylsulfinyl)-4-(3-(prop-2-yn-1-yloxy)phenyl)-6-(trifluoromethyl) pyrimidine] | 1 to 10
C=CS(=O)(=O)c1nc(-c2ccc(=O)n(Cc3ccc(OC)c(OC)c3)c2)cc(C(F)(F)F)n1 [Compound 142, 1-(3,4-dimethoxybenzyl)-5-(6-(trifluoromethyl)-2-(vinylsulfonyl)pyrimidin-4-yl)pyridin-2 (1H)-one] | 1 to 10
CS(=O)(=O)c1nc(-c2cccc(C#N)c2)cc(C(F)(F)F)n1 [Compound 56, 3-(2-(methylsulfonyl)-6-(trifluoromethyl)pyrimidin-4-yl)benzonitrile] | 1 to 20
COc1ccc(Cn2cc(-c3cc(C(F)F)nc(S(C)(=O)=O)n3)ccc2=O)cc1OC [Compound 160, 5-(6-(difluoromethyl)-2-(methylsulfonyl)pyrimidin-4-yl)-1-(3,4-dimethoxybenzyl)pyridin-2 (1H)-one] | 0.001 to 1
COCCCS(=O)(=O)c1nc(-c2ccc(=O)n(Cc3ccc(OC)c(OC)c3)c2)cc(C(F)(F)F)n1 [Compound 144, 1-(3,4-dimethoxybenzyl)-5-(2-((3-methoxypropyl)sulfonyl)-6-(trifluoromethyl)pyrimidin-4-yl)pyridin-2 (1H)-one] | 0.001 to 1
Cc1cccc(-c2cc(C(F)(F)F)nc(S(C)(=O)=O)n2)c1 [Compound 47, 2-(methylsulfonyl)-4-(m-tolyl)-6-(trifluoromethyl)pyrimidine] | 1 to 10

From patent publication US11725000B2, “Apoptosis inhibitors” (National Institute of Biological Sciences, Beijing, priority 2017, dated 2023)
